# Test results published in patent US6335357B1, “Pyrazole derivatives, process for preparing the same, intermediates, and pest control agent containing the same as active ingredient” (Mitsubishi Chemical Corporation, priority 1997, dated 2002).
# Experiments:
# Format in all cases: in vivo
# [1] = system: Plutella xylostella; assay: Insecticidal effect on larvae of Plutella xylostella (Test Example 2); conditions: 500 ppm; 3-instar larvae, cabbage leaf disc soaked in suspension; after 4 days at 25° C.
# Protocol: Insecticideal Effect on Larvae of Plutella xylostella:
# A disc (6 cm in diameter) cut out of a cabbage leaf was soaked in an aqueous suspension of the agricultural and horticultural insecticide prepared in accordance with Formulation Example 1 for 1 minute, air-dried, and placed in a plastic cup (inner diameter: 7 cm). Five 3-instar larvae of Plutella xylostella were set free in the cup (duplicates at a concentration). The cup was kept in a thermostat at 25° C., and the death and agony of the larvae were examined after 4 days from the treatment to obtain a death rate (%) taking an agonizing insect as a ½ dead insect. The results obtained are shown in Table 3 (the compound numbers in the Table below correspond to the numbers in Table 1).
# [2] = system: Nilaparvata lugens; assay: Insecticidal effect on larvae of Nilaparvata lugens (Test Example 1); conditions: 500 ppm; 4th instar larvae on rice seedling, sprayed emulsion; after 5 days at 25° C.
# Protocol: Insecticidal Effect on Larvae of Nilaparvata lugens:
# A rice seedling was planted in a glass cylinder (inner diameter: 3 cm; length: 17 cm), and five 4th instar larvae of Nilaparvata lugens were set free therein. An agricultural and horticultural insecticide was prepared in accordance with Formulation Example 3 and diluted with water, and 0.5 ml of the resulting emulsion was sprayed in the cylinder by means of a spray tower (manufactured by Mizuho Rika) (duplicates at a concentration). The cylinder was kept in a thermostat at 25° C., and the mortality and agony of the larvae were examined after 5 days from the treatment to obtain a death rate (%) taking an agonizing insect as a ½ dead insect.
# [3] = system: Callosobruchus chinensis; assay: Insecticidal effect on imagoes of Callosobruchus chinensis (Test Example 4); conditions: 500 ppm, sprayed emulsion, after 4 days at 25° C.
# Protocol: Insecticidal Effect on Imagoes of Callosobruchus chinensis:
# Two adzuki beans were put in a glass cylinder (inner diameter: 3 cm; length: 15 cm), and 10 imagoes of Callosobruchus chinensis were set free therein. An agricultural and horticultural insecticide was prepared in accordance with Formulation Example 3 and diluted with water, and 0.3 ml of the resulting emulsion was sprayed in the glass cylinder by means of a spray tower (manufactured by Mizuho Rica) (duplicates at a concentration). The cylinder was kept in a thermostat at 25° C., and the mortality and agony of the larvea were examined after 4 days from the treatment to obtain a death rate (%) taking an agonizing insect as a ½ dead insect.
# [4] = system: CD-1 male mice; assay: Single oral dose administration test in mice (acute toxicity, Test Example 7); conditions: 300 mg/kg single oral dose in 0.5% CMC-Na, after 7 days
# Protocol: Single Oral Dose Administration Test in Mice:
# Acute toxicity (p.o.) compound No. 1 in mice was examined as follows. For comparison, compound IV disclosed in an unexamined published Japanese patent application 63-316771 was tested similarly.
# Each test compound (300 mg) was suspended in 10 ml of a 0.5% CMC-Na aqueous solution. Five 6-week-old CD-1 male mice (available from Charles River) per group were forced to take an oral dose of 10 ml/kg of the suspension. The number of dead mice was counted after 7 days from the administration to obtain a death rate.
# [5] = system: Spodoptera litura; assay: Insecticidal effect on larvae of Spodoptera litura (Test Example 3); conditions: 500 ppm; 3-instar larvae, cabbage leaf disc soaked in suspension; after 5 days at 25° C.
# Protocol: Insecticidal Effect on Larvae of Spodoptera litura:
# A disc (6 cm in diameter) cut out of a cabbage leaf was soaked in an aqueous suspension of an agricultural and horticultural insecticide prepared in accordance with Formulation Example 1 for 1 minute, air-dried, and placed in a plastic cup (inner diameter: 7 cm). Five 3-instar larvae of Spodoptera litura were set free in the cup (duplicates at a concentation). The cup was kept in a thermostat at 25° C., and the death and agony of the larvae were examined after 5 days from the treatment to obtain a death rate (%) taking an agonizing insect as a ½ dead insect. The results obtained are show in Table 4 (the compound numbers in the Table below correspond to the numbers in Table 1).
# [6] = system: Myzus persicae; assay: Insecticidal effect on larvae of Myzus persicae (Test Example 5); conditions: 500 ppm; Japanese radish leaves dipped in emulsion; 4th day after treatment at 25° C.
# Protocol: Insecticidal Effect on Larvae of Myzus persicae:
# Water was put in a screw bottle (volume: 10 ml), and a leafstalk of Japanese radish was placed therein and inoculated with 5 to 6 imagoes of Myzus persicae per leave. After the inoculation, the bottle was put in a glass cylinder (diameter: 3.5 cm; height: 15 cm) with a mesh cover, and the insects were let to proliferate in a thermostat kept at 25° C. for 3 days. […] The cylinder was maintained in the thermostat at 25° C., and the number of the insects on the leaves was counted on the 4th day after the treatment to obtain a death rate (%).
# [7] = system: Plutella xylostella; assay: Low concentration test, Plutella xylostella (Test Example 6)
# Description: Effects on the larvae of Plutella xylostella of compound Nos. 2 and 57 of the invention and, for comparison, the compound I described in an unexamined published Japanese patent application 63-316771 and the compounds II and III described in an unexamined published Japanese patent application 5-148240 were examined at varied concentrations. The results obtained are shown in Table 7 (the compound numbers in the Table correspond to the numbers in Table 1).
# [8] = system: Myzus persicae; assay: Low concentration test, Myzus persicae (Test Example 6)
# [9] = system: Spodoptera litura; assay: Low concentration test, Spodoptera litura (Test Example 6)
SMILES,Death Rate (%) [1] [%],Death Rate (%) [2] [%],Death Rate (%) [3] [%],Death Rate (%) [5] [%],Death Rate (%) Plutella xylostella ([7]; 0.8 ppm) [%],Death Rate (%) Plutella xylostella ([7]; 3.1 ppm) [%],Death Rate (%) Plutella xylostella ([7]; 12.5 ppm) [%],Death Rate (%) Plutella xylostella ([7]; 50 ppm) [%],Death Rate (%) Plutella xylostella ([7]; 200 ppm) [%],Death Rate (%) Myzus persicae ([8]; 200 ppm) [%],Death Rate (%) Spodoptera litura ([9]; 12.5 ppm) [%],Death Rate (%) Spodoptera litura ([9]; 50 ppm) [%],Death Rate (%) Spodoptera litura ([9]; 200 ppm) [%],Death Rate (%) Plutella xylostella ([7]; 0.2 ppm) [%],also measured
CC(C)Oc1ccc(CNc2c(SC(F)(F)F)c(C#N)nn2-c2c(Cl)cc(C(F)(F)F)cc2Cl)cc1 [Compound 8],100,100,100,–,–,–,–,–,–,–,–,–,–,–,–
"COc1cc(CNc2c(SC(F)(F)F)c(C#N)nn2-c2c(Cl)cc(C(F)(F)F)cc2Cl)ccc1O [Compound 2, 1-(2,6-Dichloro-4-trifluoromethylphenyl)-3-cyano-4-trifluoromethylsulfenyl-5-[(3-methoxy-4-hydroxyphenyl)methylamino]pyrazole]",100,100,100,100,–,–,–,–,–,–,–,–,–,–,Death Rate (%) [4]: 0%; Death Rate (%) [6]: 100%
COc1cc(CNc2c([S+]([O-])C(F)(F)F)c(C#N)nn2-c2c(Cl)cc(C(F)(F)F)cc2Cl)ccc1O (stereo not shown) [Compound 64],100,100,100,–,–,–,–,–,–,–,–,–,–,–,–
COc1ccc(CNc2c(SC(F)(F)F)c(C#N)nn2-c2c(Cl)cc(C(F)(F)F)cc2Cl)cc1 [Compound 7],100,100,100,100,–,–,–,–,–,–,–,–,–,–,–
Cn1cccc1C=Nc1c(SC(F)(F)F)c(C#N)nn1-c1c(Cl)cc(C(F)(F)F)cc1Cl [III],–,–,–,–,20,75,100,100,100,0,65,95,100,–,–
Cn1cccc1CNc1c(SC(F)(F)F)c(C#N)nn1-c1c(Cl)cc(C(F)(F)F)cc1Cl [Compound 57],100,100,100,100,100,100,100,100,100,100,70,100,100,40,Death Rate (%) Myzus persicae ([8]; 12.5 ppm): 80%; Death Rate (%) Myzus persicae ([8]; 50 ppm): 90%; Death Rate (%) [6]: 100%
N#Cc1nn(-c2c(Cl)cc(C(F)(F)F)cc2Cl)c(N=Cc2ccncc2)c1SC(F)(F)F [II],–,–,–,–,100,100,100,100,100,0,95,200,100,100,Death Rate (%) Plutella xylostella ([7]; 0.05 ppm): 80%; Death Rate (%) Spodoptera litura ([9]; 3.1 ppm): 60%
CCCNc1c(SC(F)(F)F)c(C#N)nn1-c1c(Cl)cc(C(F)(F)F)cc1Cl [I],–,–,–,–,85,100,100,100,100,50,50,100,100,20,Death Rate (%) Myzus persicae ([8]; 3.1 ppm): 0%; Death Rate (%) Myzus persicae ([8]; 12.5 ppm): 50%; Death Rate (%) Myzus persicae ([8]; 50 ppm): 60%; Death Rate (%) Spodoptera litura ([9]; 3.1 ppm): 0%
"N#Cc1nn(-c2c(Cl)cc(C(F)(F)F)cc2Cl)c(NCc2ccncc2)c1SC(F)(F)F [Compound 1, 1-(2,6-Dichloro-4-trifluoromethylphenyl)-3-cyano-4-trifluoromethylsulfenyl-5-(4-pyridylmethylamino)pyrazole]",100,100,100,100,100,100,100,100,100,100,100,100,100,100,Death Rate (%) Plutella xylostella ([7]; 0.05 ppm): 95%; Death Rate (%) Myzus persicae ([8]; 12.5 ppm): 98%; Death Rate (%) Myzus persicae ([8]; 50 ppm): 100%; Death Rate (%) [6]: 100%; Death Rate (%) Spodoptera litura ([9]; 3.1 ppm): 95%
CC(C)(C)c1ccc(CNc2c(SC(F)(F)F)c(C#N)nn2-c2c(Cl)cc(C(F)(F)F)cc2Cl)cc1 [Compound 5],–,100,100,–,–,–,–,–,–,–,–,–,–,–,–
"N#Cc1nn(-c2c(Cl)cc(C(F)(F)F)cc2Cl)c(N)c1[S+]([O-])C(F)(F)F (stereo not shown) [IV, reference compound]",–,–,–,–,–,–,–,–,–,–,–,–,–,–,Death Rate (%) [4]: 80%
N#Cc1nn(-c2c(Cl)cc(C(F)(F)F)cc2Cl)c(NCc2ccccc2Cl)c1SC(F)(F)F [Compound 18],100,100,100,100,–,–,–,–,–,–,–,–,–,–,–
